Measurements published in ChEMBL document CHEMBL1134704, “Design, synthesis, and SAR of amino acid derivatives as factor Xa inhibitors” (Bioorg Med Chem Lett, 2001).

What was measured:
Coagulation factor X [1] = target: T1, Coagulation factor X (Homo sapiens, UniProt P00742); assay: Inhibitory activity against Coagulation factor X was determined
Prothrombin = Prothrombin (Homo sapiens, UniProt P00734); assay: In vitro inhibition of human thrombin.
Coagulation factor X [2] = target: T1, Coagulation factor X; assay: In vitro inhibition of human coagulation factor Xa.
Serine protease 1 = Serine protease 1 (Homo sapiens, UniProt P07477); assay: In vitro inhibition of human trypsin.
Sequence of Serine protease 1 (P07477 whole entry): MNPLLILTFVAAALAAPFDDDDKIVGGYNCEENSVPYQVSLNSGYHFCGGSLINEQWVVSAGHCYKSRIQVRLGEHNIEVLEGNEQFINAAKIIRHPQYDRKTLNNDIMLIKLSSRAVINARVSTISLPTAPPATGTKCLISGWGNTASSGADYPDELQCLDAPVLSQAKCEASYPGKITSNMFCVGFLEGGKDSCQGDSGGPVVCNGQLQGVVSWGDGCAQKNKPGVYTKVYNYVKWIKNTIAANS

[3] = target: Tissue-type plasminogen activator (Homo sapiens, UniProt P00750); assay: Inhibitory activity against Tissue plasminogen activator
Sequence of Tissue-type plasminogen activator (P00750 whole entry): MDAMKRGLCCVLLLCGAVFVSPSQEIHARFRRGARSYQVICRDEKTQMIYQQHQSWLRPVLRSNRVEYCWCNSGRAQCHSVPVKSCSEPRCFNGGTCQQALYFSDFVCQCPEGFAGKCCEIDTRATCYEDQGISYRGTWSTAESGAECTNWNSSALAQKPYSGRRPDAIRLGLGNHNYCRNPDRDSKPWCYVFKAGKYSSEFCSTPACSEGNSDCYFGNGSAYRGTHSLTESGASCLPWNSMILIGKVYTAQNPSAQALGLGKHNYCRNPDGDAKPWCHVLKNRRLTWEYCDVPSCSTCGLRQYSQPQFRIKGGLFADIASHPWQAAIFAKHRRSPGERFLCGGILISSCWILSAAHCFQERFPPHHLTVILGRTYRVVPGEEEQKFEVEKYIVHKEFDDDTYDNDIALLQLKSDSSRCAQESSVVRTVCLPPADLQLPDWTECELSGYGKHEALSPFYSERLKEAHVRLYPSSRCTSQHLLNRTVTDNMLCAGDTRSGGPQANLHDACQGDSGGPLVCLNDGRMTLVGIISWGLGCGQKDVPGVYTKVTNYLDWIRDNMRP

[4] = target: Vitamin K-dependent protein C (Homo sapiens, UniProt P04070); assay: Inhibitory activity against activated protein C (APC)
Sequence of Vitamin K-dependent protein C (P04070 43-197 limits assumed): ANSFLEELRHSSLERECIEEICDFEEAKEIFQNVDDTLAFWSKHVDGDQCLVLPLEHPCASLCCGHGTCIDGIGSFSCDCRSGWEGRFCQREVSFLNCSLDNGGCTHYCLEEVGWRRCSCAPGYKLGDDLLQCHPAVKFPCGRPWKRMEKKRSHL
Sequence of Vitamin K-dependent protein C (P04070 212-461 limits assumed): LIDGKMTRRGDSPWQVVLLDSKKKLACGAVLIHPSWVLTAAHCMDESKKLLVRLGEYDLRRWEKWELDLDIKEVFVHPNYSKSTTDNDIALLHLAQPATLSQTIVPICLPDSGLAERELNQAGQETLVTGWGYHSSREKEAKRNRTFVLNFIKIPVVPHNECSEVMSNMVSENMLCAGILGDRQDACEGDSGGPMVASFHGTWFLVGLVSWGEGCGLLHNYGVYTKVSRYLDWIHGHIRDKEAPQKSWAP

Plasminogen = Plasminogen (Homo sapiens, UniProt P00747); assay: Inhibitory activity against plasmin
Sequence of Plasminogen (P00747 97-580 limits assumed): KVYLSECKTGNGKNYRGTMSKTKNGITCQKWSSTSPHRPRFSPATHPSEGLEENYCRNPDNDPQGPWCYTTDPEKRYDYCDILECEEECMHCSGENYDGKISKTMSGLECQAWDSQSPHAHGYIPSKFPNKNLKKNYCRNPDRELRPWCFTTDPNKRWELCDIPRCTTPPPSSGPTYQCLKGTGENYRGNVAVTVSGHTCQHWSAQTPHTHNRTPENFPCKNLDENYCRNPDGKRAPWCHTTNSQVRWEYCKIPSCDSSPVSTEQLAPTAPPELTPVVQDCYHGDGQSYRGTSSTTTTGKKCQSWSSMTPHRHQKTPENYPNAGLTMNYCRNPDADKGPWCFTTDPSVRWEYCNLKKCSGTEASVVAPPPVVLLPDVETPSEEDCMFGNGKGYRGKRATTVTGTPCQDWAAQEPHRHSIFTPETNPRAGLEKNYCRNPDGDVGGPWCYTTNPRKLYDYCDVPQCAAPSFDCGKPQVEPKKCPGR
Sequence of Plasminogen (P00747 581-810 limits assumed): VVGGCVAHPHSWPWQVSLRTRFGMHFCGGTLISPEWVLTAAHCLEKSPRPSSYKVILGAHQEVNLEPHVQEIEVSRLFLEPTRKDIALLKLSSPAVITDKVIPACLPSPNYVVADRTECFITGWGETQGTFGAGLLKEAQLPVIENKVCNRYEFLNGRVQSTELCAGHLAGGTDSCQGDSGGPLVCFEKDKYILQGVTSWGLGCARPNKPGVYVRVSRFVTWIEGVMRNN

[5] = Oral bioavailability in rat; type: ADME, organism-based; conditions: in vivo

T1 sequence (P00742 41-179 limits assumed): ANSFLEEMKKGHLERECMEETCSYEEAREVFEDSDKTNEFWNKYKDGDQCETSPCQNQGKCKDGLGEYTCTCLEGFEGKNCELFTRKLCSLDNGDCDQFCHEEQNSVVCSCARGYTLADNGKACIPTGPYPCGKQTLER
T1 sequence (P00742 235-488 limits assumed): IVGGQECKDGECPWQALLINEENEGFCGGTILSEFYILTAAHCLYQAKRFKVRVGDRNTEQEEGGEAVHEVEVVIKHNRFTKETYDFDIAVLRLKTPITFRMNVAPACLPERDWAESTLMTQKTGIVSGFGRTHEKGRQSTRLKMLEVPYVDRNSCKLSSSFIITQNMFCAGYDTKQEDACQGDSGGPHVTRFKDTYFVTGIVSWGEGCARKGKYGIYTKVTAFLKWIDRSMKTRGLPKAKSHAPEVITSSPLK

IC50 (Coagulation factor X [1]) [µM]	IC50 (Prothrombin) [µM]	IC50 (Coagulation factor X [2]) [µM]	IC50 (Serine protease 1) [µM]	IC50 [3] [µM]	IC50 [4] [µM]	IC50 (Plasminogen) [µM]	bioavailability [5] [%]	SMILES
> 10	> 10	–	–	–	–	–	–	Nc1noc2ccc(C(=O)N[C@@H](C(=O)Nc3ccc(-c4ccccc4S(N)(=O)=O)cc3)c3ccccc3)cc12
–	> 10	3.45	–	–	–	–	–	Nc1[nH]nc2ccc(C(=O)N[C@@H](C(=O)Nc3ccc(-c4ccccc4S(N)(=O)=O)cc3)c3ccccc3)cc12
–	> 10	0.0348	> 10	–	–	–	–	CC(C)[C@@H](NC(=O)c1cccc(C(=N)N)c1)C(=O)Nc1ccc(-c2ccccc2S(N)(=O)=O)cc1
–	> 10	1.78	> 10	–	–	–	–	N=C(N)c1cccc(C(=O)N2Cc3ccc(O)cc3C[C@@H]2C(=O)Nc2ccc(-c3ccccc3S(N)(=O)=O)cc2)c1
–	> 10	0.0967	0.888	–	–	–	–	N=C(N)c1cccc(C(=O)N2Cc3ccc(O)cc3C[C@H]2C(=O)Nc2ccc(-c3ccccc3S(N)(=O)=O)cc2)c1
–	> 10	0.003	2.15	180	73	77.9	< 5	N=C(N)c1cccc(C(=O)N2Cc3ccccc3C[C@H]2C(=O)Nc2ccc(-c3ccccc3S(N)(=O)=O)cc2)c1
–	> 10	0.337	5.17	–	–	–	–	N=C(N)c1cccc(C(=O)N[C@H](C(=O)Nc2ccc(-c3ccccc3S(N)(=O)=O)cc2)c2ccccc2)c1
–	> 10	0.842	> 10	–	–	–	–	N=C(N)c1cccc(C(=O)N[C@@H](CCC(=O)OC2CCCCC2)C(=O)Nc2ccc(-c3ccccc3S(N)(=O)=O)cc2)c1
–	> 10	1.44	> 10	–	–	–	–	N=C(N)c1cccc(C(=O)N[C@@H](CCC(=O)O)C(=O)Nc2ccc(-c3ccccc3S(N)(=O)=O)cc2)c1
–	> 10	0.644	5.64	–	–	–	–	N=C(N)c1cccc(C(=O)N[C@@H](CCC(=O)OCc2ccccc2)C(=O)Nc2ccc(-c3ccccc3S(N)(=O)=O)cc2)c1
–	> 10	0.851	> 10	–	–	–	–	N=C(N)c1cccc(C(=O)NCC(=O)Nc2ccc(-c3ccccc3S(N)(=O)=O)cc2)c1
–	> 10	0.0313	> 10	–	–	–	–	N=C(N)c1cccc(C(=O)N[C@H](Cc2ccccc2)C(=O)Nc2ccc(-c3ccccc3S(N)(=O)=O)cc2)c1
–	> 10	0.762	> 10	–	–	–	–	N=C(N)c1cccc(C(=O)N[C@@H](Cc2ccccc2)C(=O)Nc2ccc(-c3ccccc3S(N)(=O)=O)cc2)c1
–	> 10	0.635	> 7.93	–	–	–	–	N=C(N)c1cccc(C(=O)N[C@H](C(=O)Nc2ccc(-c3ccccc3S(N)(=O)=O)cc2)C2CCCCC2)c1
–	> 10	0.055	4.81	–	–	–	–	N=C(N)c1cccc(C(=O)N[C@@H](CC(=O)OC2CCCCC2)C(=O)Nc2ccc(-c3ccccc3S(N)(=O)=O)cc2)c1
2.77	> 10	–	–	–	–	–	–	Nc1nccc2ccc(C(=O)N3Cc4ccccc4C[C@H]3C(=O)Nc3ccc(-c4ccccc4S(N)(=O)=O)cc3)cc12
–	> 10	> 10	> 10	–	–	–	–	N=C(N)c1cccc(C(=O)N2CCC[C@H]2C(=O)Nc2ccc(-c3ccccc3S(N)(=O)=O)cc2)c1
–	> 10	0.0187	4.39	–	–	–	–	N=C(N)c1cccc(C(=O)N2Cc3ccccc3C[C@@H]2C(=O)Nc2ccc(-c3ccccc3S(N)(=O)=O)cc2)c1
–	10	10	–	–	–	–	–	Nc1[nH]nc2ccc(C(=O)N[C@H](C(=O)Nc3ccc(-c4ccccc4S(N)(=O)=O)cc3)c3ccccc3)cc12
–	> 10	0.0348	1.77	> 180	6.56	18.1	< 5	N=C(N)c1cccc(C(=O)N[C@@H](C(=O)Nc2ccc(-c3ccccc3S(N)(=O)=O)cc2)c2ccccc2)c1
–	> 10	0.676	> 10	–	–	–	–	CC(C)[C@H](NC(=O)c1cccc(C(=N)N)c1)C(=O)Nc1ccc(-c2ccccc2S(N)(=O)=O)cc1
